Assay results: patent EP4725957A1, “GROUP OF CYCLIC ALKALINE LIPOPEPTIDE COMPOUNDS, AND PREPARATION METHOD THEREFOR AND USE THEREOF” (Institute of Medicinal Biotechnology, Chinese Academy of …, priority 2023, dated 2024)
Values after ≈ are worked out from the molar mass of the structure shown. Where two headings read alike, the source gives them in different places. Bridge positions count the residues as written; N and C are the ends. Square brackets hold non-standard residues; d marks the D form. Peptide text beside a SMILES is read from it. * marks the point of attachment. Dab(CH2SO3H) = N[C@@H](CCNCS(=O)(=O)O)C(=O)O; Heptanoyl(6-Me) = CC(C)CCCCC(=O)*; Sulfomethyl = O=S(=O)(O)C*; dOrn = NCCC[C@@H](N)C(=O)O; Nonanoyl = CCCCCCCCC(=O)*; X1 = CC[C@H](C)CCCCC(=O)*; dDab = NCC[C@@H](N)C(=O)O; Heptanoyl = CCCCCCC(=O)*; Octanoyl = CCCCCCCC(=O)*; Orn = NCCC[C@H](N)C(=O)O; dDap = NC[C@@H](N)C(=O)O; Dab = NCC[C@H](N)C(=O)O; Dap = NC[C@H](N)C(=O)O

Assays:
Format in all cases: cell-based
[1] = Nephrotoxicity assay: in vitro cytotoxicity of HK-2 cells by CCK-8 assay; conditions: human, HK-2 cells (human renal), 72 h incubation with drug-containing medium
In short: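 HK-2 human renal cells in RPMI-1640 with 10% FBS were exposed to compounds at final 12.5–500 µg/mL for 72 h, then CCK-8 for 3 h and OD450 read. Viability was normalised to drug-free wells; IC50 came from logarithmic regression over three repeats, with polymyxin B as positive drug.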

[2] = system: Pseudomonas aeruginosa PAE19-3
In short: (§1)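 Broth microdilution MIC per CLSI in MH broth, compounds 2-fold diluted to final 64–0.03 mg/L. Inoculum (2-4) × 10^5 CFU/mL final, from 0.5 McFarland suspensions of 18-24 h colonies. Plates sealed and incubated 35-37°C for 16-20 h.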

[3] = system: Klebsiella pneumoniae KPN+19-15
In short: as §1

[4] = system: Pseudomonas aeruginosa ATCC 27853
In short: as §1

[5] = system: Escherichia coli ATCC BAA-2340 (KPC)
In short: as §1

[6] = system: Acinetobacter baumannii ABA19-1
In short: as §1

[7] = system: Escherichia coli ATCC BAA-2523
In short: as §1

[8] = system: Klebsiella pneumoniae ATCC BAA-1705 (KPC)
In short: as §1

[9] = system: Acinetobacter baumannii NCTC 13304 (OXA-27)
In short: as §1

Compound	IC50 at 72 h [1] [µg/mL]	MIC ([2]; PAE19-3) [µg/mL]	MIC ([3]; KPN+19-15) [µg/mL]	MIC ([4]; ATCC 27853) [µg/mL]	MIC ([5]; ATCC BAA-2340) [µg/mL]	MIC ([6]; ABA19-1) [µg/mL]	MIC ([7]; ATCC BAA-2523) [µg/mL]	MIC ([8]; ATCC BAA-1705) [µg/mL]	MIC ([9]; NCTC 13304) [µg/mL]	MIC ([2]; Pseudomonas aeruginosa PAE19-3) [µg/mL]	MIC ([3]; Klebsiella pneumoniae KPN 19-15) [µg/mL]	MIC ([4]; Pseudomonas aeruginosa ATCC27853) [µg/mL]	MIC ([5]; Escherichia coli ATCC BAA-2340 (KPC)) [µg/mL]	MIC ([6]; Acinetobacter baumannii ABA19-1) [µg/mL]	MIC ([7]; Escherichia coli ATCC BAA-2523) [µg/mL]	MIC ([8]; Klebsiella pneumoniae ATCC BAA-1705 (KPC)) [µg/mL]	MIC ([9]; Acinetobacter baumannii NCTC 13304 (OXA-27)) [µg/mL]
CCCCCCCC(=O)N[C@@H](CCN)C(=O)N[C@H](C(=O)N[C@@H](CCCN)C(=O)N[C@H]1CCNC(=O)[C@H]([C@@H](C)O)NC(=O)[C@H](CCN)NC(=O)[C@H](CCN)NC(=O)[C@H](CC(C)C)NC(=O)[C@@H](Cc2ccccc2)NC(=O)[C@H](CCN)NC1=O)[C@@H](C)O [Compound 48, Octanoyl-Dab-Thr-Orn-ring(4-10)[Dab-Dab-D-Phe-Leu-Dab-Dab-Thr]] (Octanoyl-[Dab]T[Orn][Dab][Dab][dF]L[Dab][Dab]T; lactam 4-C)	239 ± 7.4 (≈ 199 µM)	0.25 (≈ 0.208 µM)	≤0.03	≤0.03	0.03 (≈ 0.0249 µM)	0.125 (≈ 0.104 µM)	0.03 (≈ 0.0249 µM)	≤0.03	0.06 (≈ 0.0499 µM)								
CC(C)CCCCC(=O)N[C@@H](CCN)C(=O)N[C@H](C(=O)N[C@H](CCCN)C(=O)N[C@H]1CCNC(=O)[C@H]([C@@H](C)O)NC(=O)[C@H](CCN)NC(=O)[C@H](CCN)NC(=O)[C@H](CC(C)C)NC(=O)[C@@H](Cc2ccccc2)NC(=O)[C@H](CCN)NC1=O)[C@@H](C)O [Compound 42, 6-methylheptanoyl-Dab-Thr-D-Orn-ring(4-10)[Dab-Dab-D-Phe-Leu-Dab-Dab-Thr]] ({Heptanoyl(6-Me)}-[Dab]T[dOrn][Dab][Dab][dF]L[Dab][Dab]T; lactam 4-C)	316 ± 6.7 (≈ 262 µM)	1 (≈ 0.831 µM)	0.125 (≈ 0.104 µM)	0.25 (≈ 0.208 µM)	0.03 (≈ 0.0249 µM)	0.125 (≈ 0.104 µM)	0.03 (≈ 0.0249 µM)	0.06 (≈ 0.0499 µM)	0.06 (≈ 0.0499 µM)								
CCCCCCCC(=O)N[C@@H](CCN)C(=O)N[C@H](C(=O)N[C@H](CN)C(=O)N[C@H]1CCNC(=O)[C@H]([C@@H](C)O)NC(=O)[C@H](CCN)NC(=O)[C@H](CCN)NC(=O)[C@H](CC(C)C)NC(=O)[C@@H](Cc2ccccc2)NC(=O)[C@H](CCN)NC1=O)[C@@H](C)O [Compound 33, Octanoyl-Dab-Thr-D-Dap-ring(4-10)[Dab-Dab-D-Phe-Leu-Dab-Dab-Thr]] (Octanoyl-[Dab]T[dDap][Dab][Dab][dF]L[Dab][Dab]T; lactam 4-C)	339 ± 9.1 (≈ 289 µM)									0.25 (≈ 0.213 µM)	0.03 (≈ 0.0255 µM)	0.03 (≈ 0.0255 µM)	0.03 (≈ 0.0255 µM)	0.03 (≈ 0.0255 µM)	0.03 (≈ 0.0255 µM)	0.03 (≈ 0.0255 µM)	0.03 (≈ 0.0255 µM)
CC[C@H](C)CCCCC(=O)N[C@@H](CCN)C(=O)N[C@H](C(=O)N[C@@H](CN)C(=O)N[C@H]1CCNC(=O)[C@H]([C@@H](C)O)NC(=O)[C@H](CCN)NC(=O)[C@H](CCN)NC(=O)[C@H](CC(C)C)NC(=O)[C@@H](Cc2ccccc2)NC(=O)[C@H](CCN)NC1=O)[C@@H](C)O [Compound 36, (S)-6-methyloctanoyl-Dab-Thr-Dap-ring(4-10)[Dab-Dab-D-Phe-Leu-Dab-Dab-Thr]] (X1-[Dab]T[Dap][Dab][Dab][dF]L[Dab][Dab]T; lactam 4-C)	237 ± 5.3 (≈ 199 µM)	0.25 (≈ 0.21 µM)	0.03 (≈ 0.0252 µM)	0.03 (≈ 0.0252 µM)	0.03 (≈ 0.0252 µM)	0.03 (≈ 0.0252 µM)	0.03 (≈ 0.0252 µM)	0.03 (≈ 0.0252 µM)	0.03 (≈ 0.0252 µM)								
CCCCCCC(=O)N[C@@H](CCN)C(=O)N[C@H](C(=O)N[C@H](CO)C(=O)N[C@H]1CCNC(=O)[C@H]([C@@H](C)O)NC(=O)[C@H](CCN)NC(=O)[C@H](CCN)NC(=O)[C@H]([C@@H](C)O)NC(=O)[C@@H](Cc2ccccc2)NC(=O)[C@H](CCCN)NC1=O)[C@@H](C)O [Compound 69, Heptanoyl-Dab-Thr-D-Ser-ring(4-10)[Dab-Orn-D-Phe-Thr-Dab-Dab-Thr]] (Heptanoyl-[Dab]T[dS][Dab][Orn][dF]T[Dab][Dab]T; lactam 4-C)	> 500	8 (≈ 6.87 µM)	0.5 (≈ 0.429 µM)	64 (≈ 55 µM)	0.5 (≈ 0.429 µM)	0.25 (≈ 0.215 µM)	0.5 (≈ 0.429 µM)	0.25 (≈ 0.215 µM)	0.25 (≈ 0.215 µM)								
CCCCCCCC(=O)N[C@@H](CCN)C(=O)N[C@H](C(=O)N[C@H](CCN)C(=O)N[C@H]1CCNC(=O)[C@H]([C@@H](C)O)NC(=O)[C@H](CCN)NC(=O)[C@H](CCN)NC(=O)[C@H]([C@@H](C)O)NC(=O)[C@@H](Cc2ccccc2)NC(=O)[C@H](CCN)NC1=O)[C@@H](C)O [Compound 13, Octanoyl-Dab-Thr-D-Dab-ring(4-10)[Dab-Dab-D-Phe-Thr-Dab-Dab-Thr]] (Octanoyl-[Dab]T[dDab][Dab][Dab][dF]T[Dab][Dab]T; lactam 4-C)	> 500	1 (≈ 0.849 µM)	≤0.03	1 (≈ 0.849 µM)	≤0.03	≤0.03	≤0.03	0.06 (≈ 0.051 µM)	≤0.03								
CC(C)CCCCC(=O)N[C@@H](CCN)C(=O)N[C@H](C(=O)N[C@@H](CN)C(=O)N[C@H]1CCNC(=O)[C@H]([C@@H](C)O)NC(=O)[C@H](CCNCS(=O)(=O)O)NC(=O)[C@H](CCN)NC(=O)[C@H]([C@@H](C)O)NC(=O)[C@@H](Cc2ccccc2)NC(=O)[C@H](CCN)NC1=O)[C@@H](C)O [Compound 120, 6-methylheptanoyl-Dab-Thr-Dap-ring(4-10)[Dab-Dab-D-Phe-Thr-Dab-Dab(CH2SO3H)-Thr]] ({Heptanoyl(6-Me)}-[Dab]T[Dap][Dab][Dab][dF]T[Dab][Dab(CH2SO3H)]T; lactam 4-C)	> 500	0.5 (≈ 0.398 µM)	0.125 (≈ 0.0994 µM)	0.25 (≈ 0.199 µM)	0.06 (≈ 0.0477 µM)	0.25 (≈ 0.199 µM)	0.06 (≈ 0.0477 µM)	0.125 (≈ 0.0994 µM)	0.06 (≈ 0.0477 µM)								
CC(C)CCCCC(=O)N[C@@H](CCN)C(=O)N[C@H](C(=O)N[C@H](CO)C(=O)N[C@H]1CCNC(=O)[C@H]([C@@H](C)OCS(=O)(=O)O)NC(=O)[C@H](CCN)NC(=O)[C@H](CCN)NC(=O)[C@H]([C@@H](C)O)NC(=O)[C@@H](Cc2ccccc2)NC(=O)[C@H](CCN)NC1=O)[C@@H](C)O [Compound 106, 6-methylheptanoyl-Dab-Thr-D-Ser-ring(4-10)[Dab-Dab-D-Phe-Thr-Dab-Dab-Thr(CH2SO3H)]] ({Heptanoyl(6-Me)}-[Dab]T[dS][Dab][Dab][dF]T[Dab][Dab]T(Sulfomethyl); lactam 4-C)	> 500	0.25 (≈ 0.199 µM)	0.125 (≈ 0.0993 µM)	0.25 (≈ 0.199 µM)	0.03 (≈ 0.0238 µM)	0.06 (≈ 0.0477 µM)	0.03 (≈ 0.0238 µM)	0.125 (≈ 0.0993 µM)	0.06 (≈ 0.0477 µM)								
CCCCCCCCC(=O)N[C@@H](CCN)C(=O)N[C@H](C(=O)N[C@H](CCCN)C(=O)N[C@H]1CCNC(=O)[C@H]([C@@H](C)O)NC(=O)[C@H](CCN)NC(=O)[C@H](CCN)NC(=O)[C@H]([C@@H](C)O)NC(=O)[C@@H](Cc2ccccc2)NC(=O)[C@H](CCN)NC1=O)[C@@H](C)O [Compound 25, Nonanoyl-Dab-Thr-D-Orn-ring(4-10)[Dab-Dab-D-Phe-Thr-Dab-Dab-Thr]] (Nonanoyl-[Dab]T[dOrn][Dab][Dab][dF]T[Dab][Dab]T; lactam 4-C)	338 ± 15.1 (≈ 280 µM)	2 (≈ 1.66 µM)	0.125 (≈ 0.104 µM)	0.5 (≈ 0.415 µM)	≤0.03	0.125 (≈ 0.104 µM)	≤0.03	0.06 (≈ 0.0498 µM)	0.06 (≈ 0.0498 µM)								
CC(C)CCCCC(=O)N[C@@H](CCN)C(=O)N[C@H](C(=O)N[C@@H](CN)C(=O)N[C@H]1CCNC(=O)[C@H]([C@@H](C)O)NC(=O)[C@H](CCN)NC(=O)[C@H](CCN)NC(=O)[C@H]([C@@H](C)OCS(=O)(=O)O)NC(=O)[C@@H](Cc2ccccc2)NC(=O)[C@H](CCN)NC1=O)[C@@H](C)O [Compound 114, 6-methylheptanoyl-Dab-Thr-Dap-ring(4-10)[Dab-Dab-D-Phe-Thr(CH2SO3H)-Dab-Dab-Thr]] ({Heptanoyl(6-Me)}-[Dab]T[Dap][Dab][Dab][dF]T(Sulfomethyl)[Dab][Dab]T; lactam 4-C)	> 500	0.25 (≈ 0.199 µM)	0.125 (≈ 0.0994 µM)	0.25 (≈ 0.199 µM)	0.03 (≈ 0.0239 µM)	0.06 (≈ 0.0477 µM)	0.03 (≈ 0.0239 µM)	0.125 (≈ 0.0994 µM)	0.06 (≈ 0.0477 µM)								
